Experimental findings from patent US20250051322A1, “CRYSTAL OF S[…], SALTS OF S[…], AND CRYSTALS THEREOF” (Eisai R&D Management Co., Ltd., priority 2022, published 2025) are described below.

Structures are written as SMILES.

Experiment [1] has as its system orexin/ataxin 3 mice (Tg mice). Kind of experiment: Test Example 4: alertness effect and cataplexy-like behavior inhibiting effect by dark period oral administration to orexin/ataxin 3 mice. Particulars: for sleep latency: before lights off, solvent 0.21 hour; for DREM latency: solvent 1.16 hours, assessed up to maximum 4 hours. Format: in vivo, mouse. The text has this: The experimental animals used were orexin/ataxin 3 mice (orexin/ataxin-3 Tg/+ (hereunder referred to as “Tg mice”), Hara et al., Neuron, 30, 345-54, 2001) with a C57BL/6 genetic background, with wild type mice (hereunder referred to as “WT mice”) of the same litter as the control. Electroencephalogram and electromyogram measuring electrodes were surgically embedded into 12-week-old mice (+2 weeks) under isoflurane anesthesia. After surgery, and following conditioning to the illumination cycle and experimentation procedure, electroencephalogram and electromyogram measurement were carried out and mice with proper electroencephalogram and electromyogram recording were supplied for the experiment. The solvent (0 mg/kg) or a specimen (solution of compound (I) dissolved in the solvent (0.3, 1 or 3 mg/kg)) was orally administered 30 to 15 minutes before lighting was turned off. The solvent used was a 0.1 mol/L hydrochloric acid solution containing 5% (v/v) DMSO and 5% (v/v) Kolliphor^R EL. The electroencephalogram and electromyogram were recorded for about 24 hours, from 1 hour before lighting was turned off. The mice were repeatedly used, with a washout period of 2 days or longer. The electroencephalogram and electromyogram data obtained for each mouse were used to assess the sleep stage every epoch (10 seconds), using sleep analysis software (SleepSign: Kissei Comtec Co., Ltd.), up to a maximum of 4 hours. For the purpose of this experiment, cataplexy-like symptoms were defined as REM sleep appearing immediately after wakefulness (direct transitions from wake to REM sleep (DREM)) for a contiguous period of 4 epochs or longer. DREM in mice is an analog of cataplexy (Exp Neurol. 2009:217:46-54). The time until initial sleep appeared after lighting out for each mouse (sleep for contiguous 8 epochs or longer, excluding DREM) (sleep latency) and the time until initial DREM appeared (DREM latency) were measured. The numbers of mice were 8 in the solvent-administered group and 14 in the compound (I)-administered group. The sleep latency in a disease control group and a compound (I)-administered group were compared by a Dunnet-type multiple comparison test following survival time analysis in consideration of the number of experiments and use of the same individuals, with a significance level of 5% at both ends for each. The DREM latency in the normal control group and disease control group were compared by survival time analysis in consideration of the number of experiments and use of the same individuals. Cases with significance in the statistical test for the disease control group and the compound (I)-administered group were compared by a Dunnet-type multiple comparison test following survival time analysis in consideration of the number of experiments and use of the same individuals, with a significance level of 5% at both ends for each.

For experiment [2], the system named is C57BL/6 line wild type (WT) male mice. Kind of experiment: Test Example 3: alertness effect (sleep latency, EEG/EMG) by dark period oral administration to wild type mice. Format: in vivo, mouse. Particulars: before lights off, solvent 0.23 hour. The procedure: The experimental animals used were C57BL/6 line wild type (WT) male mice. Electroencephalogram and electromyogram measuring electrodes were surgically embedded into 13-week-old mice under isoflurane anesthesia. After surgery, and following conditioning to the illumination cycle and experimentation procedure, electroencephalogram and electromyogram measurement were carried out and mice with proper electroencephalogram and electromyogram recordings were supplied for the experiment. The solvent (0 mg/kg) or a solution of compound (I) dissolved in the solvent (1, 3 or 10 mg/kg) was orally administered 30 to 15 minutes before lighting was turned off. The solvent used was a 0.1 mol/L hydrochloric acid solution containing 5% (v/v) DMSO and 5% (v/v) Kolliphor^R EL. The electroencephalogram and electromyogram were recorded for about 24 hours, from 1 hour before lighting was turned off. The mice were repeatedly used, with a washout period of 2 days or longer. The electroencephalogram and electromyogram data obtained for each mouse were used to assess the sleep stage every epoch (10 seconds), using sleep analysis software (SleepSign: Kissei Comtec Co., Ltd.). […] Using 16 mice in each administered group, the sleep latency in a solvent-administered group (control group) and a compound (I)-administered group were compared by a Dunnet-type multiple comparison test following survival time analysis in consideration of the number of experiments and use of the same individuals, with a significance level of 5% at both ends for each.

In the next experiment the target is T1, hOX1R (Homo sapiens, UniProt O43613).
T1 construct: expressed in transfected cells; host or cells: HEK293
T1 sequence (O43613 1-425): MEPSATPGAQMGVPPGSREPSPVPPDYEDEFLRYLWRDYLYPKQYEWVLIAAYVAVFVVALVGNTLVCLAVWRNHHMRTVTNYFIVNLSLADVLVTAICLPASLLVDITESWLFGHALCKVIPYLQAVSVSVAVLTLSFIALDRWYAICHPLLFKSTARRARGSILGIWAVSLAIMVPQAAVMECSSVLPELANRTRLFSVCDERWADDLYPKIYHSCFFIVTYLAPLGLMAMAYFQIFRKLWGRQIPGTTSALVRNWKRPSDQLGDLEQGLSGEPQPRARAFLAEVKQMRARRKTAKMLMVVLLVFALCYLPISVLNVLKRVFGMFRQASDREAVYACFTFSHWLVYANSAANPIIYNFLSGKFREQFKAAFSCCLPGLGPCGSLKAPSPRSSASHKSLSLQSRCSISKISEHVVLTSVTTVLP
Kind of experiment: Test Example 1-1: activating activity for OX1R (intracellular calcium, HEK293 with forced expression). Format: cell-based. Particulars: calcium fluorescence, 3×10^-10 M to 1×10^-7 M, 10 nM OX-A as 100%. On the procedure: Human Embryonic Kidney cells 293 (HEK293) cells with forced expression of hOX1R and hOX2R were seeded in a 384-well microplate (Greiner) at 10,000 per well and cultured for 24 hours in high-glucose-DMEM (FujiFilm Corp.-Wako Pure Chemical Industries, Ltd.) containing added 10% FBS (Thermo Scientific) and 1% Penicillin-Streptomycin (FujiFilm Corp.-Wako Pure Chemical Industries, Ltd.). After removing the medium, there was added 40 μL of assay buffer (20 mM HEPES (Sigma-Aldrich Japan, KK.), Hank's Balanced Salt Solution (Gibco), 0.1% BSA (Sigma-Aldrich Japan, KK.), 0.1% Pluronic F-127 (Biotium, Inc.)) containing Calcium 4 dye (Molecular Device Corporation) and 2.5 mM probenecid (Sigma-Aldrich Japan, KK.), and the mixture was incubated for 60 minutes. After further adding 20 μL of assay buffer, 20 μL of assay buffer containing the test compound was added and reaction was initiated. Change in intracellular calcium ion concentration by the reaction was measured based on the fluorescence intensity ratio in terms of the fluorescence value with dual wavelength excitation at 480 nm and 540 nm, using FDSS7000 (Hamamatsu Photonics, K.K.). The test compound was dissolved in DMSO to 10 mM, and diluted with assay buffer to a final concentration of from 3×10^−10 M to 1×10^−7 M (DMSO final concentration of 0.1%). […]
For orientation: A change in cytosolic calcium serves as a functional read-out for many receptors and channels.

The next experiment concerns Male C57BL/6NCrl mice. Kind of experiment: Test Example 2: increase in spontaneous movement. The format is in vivo, mouse. Particulars: 10 mg/kg orally, measured 2 hours after administration, control group = 100%. On the procedure: Increased movement in mice is an indicator of increased alertness time, higher body temperature and augmented cardiovascular parameters, as well as heightened alertness. In this test example, the alertness effect was evaluated by measuring spontaneous movement of the mice. Male C57BL/6NCrl mice (18-19 weeks old, Charles River Laboratories, Japan Inc., 4 mice in each group) were used for the experiment. Spontaneous movement was measured by using a movement measuring device (VersaMax Open Field, AccuScan Instruments, Inc.), irradiating infrared rays from the side sections of the measuring cage, and quantifying the number of times that the mice passed through the irradiated rays. After placing the mice in the measuring cage and conditioning for 3 hours, compound (I) was orally administered (10 mg/kg). Spontaneous movement was measured 2 hours after administration. The mice in the compound (I)-administered group were administered a solution of compound (I) dissolved in 0.1 mol/L hydrochloric acid containing 5% (v/v) DMSO and 5% (v/v) Kolliphor^R EL. For the control group, solvent alone without compound (I) was administered to the mice.
Spontaneous movement was represented as a percentage for the compound (I)-administered group, with spontaneous movement in the control group as 100%.

For the molecule `CO[C@@H]1CN(c2ncc(F)cn2)CC[C@@H]1[C@@H]1C[C@H]2CC[C@@H](C1)N2[C@@H](C(N)=O)C1CC1` [Example 1, (2R)-2-cyclopropyl-2-{(1R,3S,5S)-3-[(3S,4R)-1-(5-fluoropyrimidin-2-yl)-3-methoxypiperidin-4-yl]-8-azabicyclo[3.2.1]octan-8-yl}acetamide], the sleep latency in experiment [1] (0.3 mg/kg oral) was 0.31 h; in experiment [1] (1 mg/kg oral, significant), 0.64 h; in experiment [1] (3 mg/kg oral, significant), 2.42 h.

In general, EC50 refers to the midpoint of the concentration-response curve. As for `CO[C@@H]1CN(c2ncc(F)cn2)CC[C@@H]1[C@@H]1C[C@H]2CC[C@@H](C1)N2[C@@H](C(N)=O)C1CC1` [Compound (I), (2R)-2-cyclopropyl-2-{(1R,3S,5S)-3-[(3S,4R)-1-(5-fluoropyrimidin-2-yl)-3-methoxypiperidin-4-yl]-8-azabicyclo[3.2.1]octan-8-yl}acetamide], the DREM latency in experiment [1] (0.3 mg/kg oral, significant) was determined as 1.50 h; in experiment [1] (1 mg/kg oral, significant), 2.26 h; in experiment [1] (3 mg/kg oral, significant) it was 4.00 h. Moreover, the sleep latency worked out at 0.28 h in experiment [2] (1 mg/kg oral); 0.44 h in experiment [2] (3 mg/kg oral, significant); 2.07 h in experiment [2] (10 mg/kg oral, significant). The EC50 on hOX1R is more than 100 nM. Besides, the “Spontaneous movement (% of Control)” value in the experiment with Male C57BL/6NCrl mice is 865 % of Control.
